Read-outs that look alike come from different tables or passages of the source.
Experiments:
endothelial cells [1] = test: oxLDL and TNFα in hemodynamic environment: RT-PCR gene expression; assay type: cell-based; conditions: atheroprone shear stress, 50 μg/ml oxLDL without or with 0.05 ng/ml TNFα
Procedure: To emulate more inflammatory stages of atherosclerosis, it is desirable to combine multiple circulating factors to better emulate the complexity found within human blood vessels. […] The media in the upper volume was then exchanged for media containing 0.05 ng/ml TNFα and 50 μg/ml of oxLDL. Media containing only 50 μg/ml of nLDL was used as a control.
Following 24 hours of shear stress preconditioning with atheroprotective or atheroprone hemodynamic forces, 50 μg/ml of oxLDL and 0.05 ng/ml of TNFα were added to upper volume (containing the endothelial cells). This concentration of TNFα is similar to plasma concentrations of TNFα observed in patients with cardiovascular disease. In devices not receiving oxLDL, nLDL was added to the upper volume at the same concentration and used as a vehicle control. Shear stress application was continued for an additional 24 hours in the presence of TNF-α and oxLDL (see FIG. 5). Gene expression analysis was performed using RT-PCR.

NFκB = test: NFκB-luciferase reporter (Ad-NFκB-luc); assay type: cell-based; conditions: smooth muscle cells; oxLDL added to upper volume only
Procedure: (§1) Five different donor pairs were used to analyze the oxLDL (50 μg/ml) response compared to nLDL (50 μg/ml) within the atheroprone hemodynamic environment in endothelial cells and smooth muscle cells. […] Significant genes were considered using an FDR of 0.01. Gene expression results are reported as the relative expression of the gene as compared to the expression of β-2 microglobulin (B2M). Protein expression results are reported as the relative expression of the protein as compared to the expression of actin. Activity of NFκB was assessed using an adenovirus NFκB-luciferase (Ad-NFκB-luc) reporter infected in ECs and SMCs.

[2] = test system: endothelial cells and smooth muscle cells; test: oxLDL in hemodynamic environment: gene array, gene, protein and cytokine expression; assay type: cell-based; conditions: for number of genes regulated as compared to cells treated with nLDL: atheroprone, 50 μg/ml oxLDL vs 50 μg/ml nLDL
Procedure: Following 16-24 hours of shear stress preconditioning with atheroprotective or atheroprone hemodynamic forces, oxLDL was added to upper volume (containing the endothelial cells) at a concentration of 10-50 μg/ml (FIG. 5). In devices not receiving oxLDL, nLDL was added to the upper volume at the same concentration and used as a vehicle control. This concentration of oxLDL is similar to plasma concentrations of oxLDL observed in patients with cardiovascular disease. Shear stress application was continued for an additional 24 hours in the presence of oxLDL.
as §1

primary rat hepatocytes [3] = test: Gluconeogenesis assay (AMPLEX RED glucose); assay type: cell-based; conditions: for Effect (% Change) on glucose levels: insulin 2 nM or glucagon 100 nM; for glucose levels: decreased by (insulin) / increased by (glucagon) / glucose levels: decreased by (insulin) / increased by further (glucagon): insulin 2 nM, glucagon 100 nM; for glucose levels: decreased by (insulin) / increased by further (glucagon): substrate glycerol
[4] = test system: endothelial cell/smooth muscle cell co-cultures; test: HDL in hemodynamic environment; assay type: cell-based; conditions: HDL at 45 μg/ml or 90 μg/ml; hemodynamic shear stress
Procedure: An additional component of plasma cholesterol distinct from nLDL or oxLDL is HDL. […] HDL was then added to the upper volume at a concentration of 45-1,000 μg/ml. This broad range reflects the broad range of HDL concentrations that can exist within human patients. HDL concentrations in individuals at risk for vascular disease are generally less than about 300 μg/ml, while HDL concentrations in healthy individuals range from greater than about 300 μg/ml up to about 2,000 μg/ml in healthy exercising patients.
In additional experiments, endothelial cell/smooth muscle cell co-cultures plated as described above were preconditioned for 16 hours with hemodynamic shear stress. From hours 16-24 the cells were additionally primed with 0.05 ng/ml TNFα and 50 μg/ml of oxLDL (compared to a vehicle control containing 50 μg/ml nLDL) in the upper volume. At 24 hours, 45 μg/ml or 90 μg/ml HDL was added to the media in the upper volume and hemodynamic shear stress was continued for the next 24 hours (hours 24-48).

[5] = test system: endothelial cells and smooth muscle cells; test: Hypertension model gene array analysis; assay type: cell-based; conditions: healthy and atheroprone conditions
Procedure: ANG2 at a concentration of 10 nM (10.46 ng/ml) or a DMSO vehicle control (VEH) was added to the upper volume and RNA was collected for gene array analysis.
Aldosterone at a concentration of 1 mM or a vehicle control (VEH) was added to the upper volume and RNA was collected for gene array analysis

rat hepatocytes = test: RT-PCR of oxidative stress-related and MRP genes; conditions: controlled hemodynamic conditions
primary rat hepatocytes [6] = test: Biliary activity stain (CDFDA), canalicular pattern; assay type: cell-based; conditions: controlled hemodynamic conditions, 48 hours
Description: Samples were then washed with PBS and placed on glass slide for confocal imaging.

primary rat hepatocytes [7] = test: Toxicity to hepatocytes under controlled flow during Cyp induction; conditions: 50 μM dexamethasone, concentration recommended for static cultures
Procedure: Cytochrome p450 assays were done on day 7 using commercially available P450-GLO kits. After 4 hours the media was transferred to 96-well plates and assayed for luminescent metabolites to reflect cytochrome p450 activity.

cytochrome p450 3A = test: Cytochrome p450 activity assay (P450-GLO), 3A; assay type: in vitro ADME, rat; conditions: controlled hemodynamics; dexamethasone 02.5 μM, 48 hours; DMSO 11.64
Procedure: (§3) Porous membrane segments roughly 2 cm^2 in area were excised and transferred to standard 24-well plates alongside corresponding static cultures. The cells were incubated with 500 μl of hepatocyte media containing substrates from commercially available P450-GLO kits (kits for luminescent cytochrome p450 assays) at the manufacturer-recommended concentrations. After 4 hours, the media was transferred to 96-well plates and assayed for luminescent metabolites to reflect cytochrome p450 activity as per the manufacturer protocol.
(§4) After 48 hours, on day 7, segments of the porous membrane from the devices containing hepatocytes cultured under controlled hemodynamics that were roughly 2.0 cm^2 in area were excised and transferred to standard 24-well plates and treated with substrates for the Cyp p450 enzymes in parallel to corresponding static cultures treated with the different agents. Cytochrome p450 assays were done on day 7 using commercially available P450-GLO kits. After 4 hours the media was transferred to 96-well plates and assayed for luminescent metabolites to reflect cytochrome p450 activity.

[8] = test system: primary human hepatocytes; conditions: 72 h
Procedure: Hepatocytes were then incubated with medium containing 1 mg/ml of MTT reagent (thiazolyl blue tetrazolium bromide) for 1 hour, following which the cells were lysed in DMSO to release the formazan blue dye formed. The solution was transferred to a 96 well plate and the absorbance was read at 595 nm.

primary rat hepatocytes [9] = test: miRNA122 assay; assay type: cell-based; conditions: static conditions; chlorpromazine 1 μM, 4 hours
Procedure: The hepatocytes were then washed with PBS and incubated with serum free hepatocyte medium with or without known toxic drug chlorpromazine (CPZ) at two different concentrations (1 μM and 10 μM) for 4 hours. Supernatants from the cells were collected and microRNA extraction was performed using the MIRNEASY serum/plasma kit (a kit for extracting microRNA, Qiagen). The cDNA was prepared by using the MISCRIPTII RT kit (a kit for preparing cDNA, Qiagen) and samples quantified using the MISCRIPT SYBR GREEN PCR kit (a kit for quantifying cDNA, Qiagen), following the manufacturer's instructions.
The hepatocytes were washed with PBS and immediately incubated with either vehicle (distilled water) or chlorpromazine (1 μM) for 4 hours. The supernatant was collected and miRNA 122 levels were measured as described above.

[10] = test system: primary human hepatocytes; conditions: 1 μM chlorpromazine; controlled hemodynamic conditions relative to static controls
endothelial cells [11] = test: TNFα in hemodynamic environment: gene expression; assay type: cell-based; conditions: 0.1-1 ng/ml TNFα; atheroprone hemodynamic forces; not seen at same levels in static cultures
Procedure: Following 24 hours of shear stress preconditioning with atheroprotective or atheroprone hemodynamic forces, TNFα was added to upper volume (containing the endothelial cells) at a concentration of 0.05-1 ng/ml (see FIG. 5). This concentration of TNFα is similar to plasma concentrations of TNFα observed in patients with cardiovascular disease. Shear stress application was continued for an additional 24 hours in the presence of TNFα.

[12] = test system: endothelial and smooth muscle cells; test: Expression of genes relevant to thrombosis; assay type: cell-based, Human; conditions: TNFα stimulation; both endothelial and smooth muscle cells
Procedure: (§2) Human endothelial cells were co-cultured with or without smooth muscle cells in the presence or absence of human-derived, region-specific hemodynamics. Endothelial cells were exposed to TNFα at various concentrations and incubated in human, platelet-free plasma supplemented by ALEXA FLUOR 488 (A488, a fluorescent dye)-labeled fibrinogen. Conversion of A488-fibrinogen to A488-fibrin and deposition on the endothelium was quantified by confocal microscopy.
FIG. 2B depicts a heat map of relative gene expression in endothelial and smooth muscle cells (grown under atheroprone or atheroprotective conditions; see FIG. 2A) of several genes relevant to thrombosis. The relative changes in gene expression of Tissue Factor (F3) and Thrombomodulin (THBD) are presented below the heat map. Atheroprone hemodynamics up-regulate Tissue Factor (F3) compared to atheroprotective shear stress. […] In addition, TNFα stimulation reduces Tissue Factor Pathway Inhibitor (TFPI) in both endothelial and smooth muscle cells.

[13] = test system: Endothelial/smooth muscle cell co-cultures; test: Coculture thrombosis assay with shear stress, Protocol A (fibrin deposition); assay type: cell-based, Human; conditions: atheroprone hemodynamics vs static cultures
Procedure: as §2
Following 24 hours of shear stress application (atheroprone or atheroprotective), the media was supplemented with TNFα at a concentration of 0.05 ng/mL or 0.10 ng/mL and shear stress was continued for an additional 24 hours, as shown in FIG. 3A. Media was then removed from both the upper and lower chambers, and both the endothelial cells and smooth muscle cells are washed twice with PBS. Endothelial cells were then incubated for 15 minutes at 37° C. with PFP supplemented with 37.5 μg/mL ALEXA-488 human fibrinogen, 20 μg/mL corn trypsin inhibitor, and 10 mM calcium, and fixed and imaged as described above for monocultures.

cytochrome p450 1A/1B = test: Cytochrome p450 activity assay (P450-GLO), 1A/1B
Procedure: as §3, §4

[14] = atheroprone hemodynamic environment
[15] = No substrate, 4 hours, controlled hemodynamics
[16] = substrate Glycerol (2 mM), 4 hours
[17] = substrate Lactate/Pyruvate (20 mM/2 mM), 4 hours
[18] = substrates lactate and pyruvate

oxidized low-density lipoprotein [oxLDL]
eNOS gene expression (NOS3) (endothelial cells [1]): reduced | E-Selectin (SELE) gene expression (endothelial cells [1]; control nLDL): higher levels | NFκB signaling (luciferase reporter) (NFκB): elevated | atheroprotective signaling (eNOS and KLF2) gene expression ([2]; atheroprone conditions): reduced | inflammatory genes IL8 and E-Selectin (SELE) expression ([2]; atheroprone conditions, not regulated in traditional static cultures): activate | levels of secreted cytokines (IL6, IL8, MCP-1) [2, 14]: increased | phosphorylation of atheroprotective eNOS signaling [2, 14]: reduced | number of genes regulated as compared to cells treated with nLDL ([2]; endothelial cells, 5 donors): 688 genes | number of genes regulated as compared to cells treated with nLDL ([2]; smooth muscle cells, 4 donors): 304 genes

OCC(O)CO [Glycerol, glycerol]
change in glucose produced with substrate alone (primary rat hepatocytes [3]; Glycerol 2 mM, no hormone, 4 hours): Glycerol (+67%) | glucose produced by the hepatocytes increased by (primary rat hepatocytes [3]; substrate glycerol (2 mM) alone): 67%

high-density lipoprotein [HDL]
atheroprotective and pro-inflammatory gene and protein activation [4]: activates many atheroprotective genes while blocking activation of pro-inflammatory genes and proteins

glucagon
Effect (% Change) on glucose levels (primary rat hepatocytes [3]; [15]): +51% | glucose levels: decreased by (insulin) / increased by (glucagon) (primary rat hepatocytes [3]; absence of a substrate): 51% | Effect (% Change) on glucose levels (primary rat hepatocytes [3]; [16]): +15% | Effect (% Change) on glucose levels (primary rat hepatocytes [3]; [17]): +80% | glucose levels: decreased by (insulin) / increased by further (glucagon) (primary rat hepatocytes [3]): 15% | glucose levels: decreased by (insulin) / increased by (glucagon) (primary rat hepatocytes [3]; [18]): 80%

C[C@]12CCC(=O)C=C1CC[C@@H]1[C@@H]2[C@@H](O)C[C@]2(C=O)[C@@H](C(=O)CO)CC[C@@H]12 [aldosterone]
inflammatory genes (gene array) ([5]; Aldosterone 1 mM vs vehicle): upregulated

Cc1c(C)c2c(c(C)c1O)CCC(C)(COc1ccc(CC3SC(=O)NC3=O)cc1)O2 (stereo not shown) [troglitazone]
oxidative stress-related genes and MRP3 and MRP4 genes (rat hepatocytes): upregulation | changes in the canalicular pattern (cholestatic changes) (primary rat hepatocytes [6]; troglitazone 4 uM): visibly dilated canalicular structures | changes in the canalicular pattern (cholestatic changes) (primary rat hepatocytes [6]; troglitazone 40 uM): much more prominent and extensive

C[C@@H]1C[C@H]2[C@@H]3CCC4=CC(=O)C=C[C@]4(C)[C@@]3(F)[C@@H](O)C[C@]2(C)[C@@]1(O)C(=O)CO [Dexamethasone, dexamethasone]
toxicity in the controlled flow system (primary rat hepatocytes [7]): toxic | 3A response (cytochrome p450 activity normalized to ATP content) (cytochrome p450 3A): 57.53

insulin
Effect (% Change) on glucose levels (primary rat hepatocytes [3]; [15]): −27% | glucose levels: decreased by (insulin) / increased by (glucagon) (primary rat hepatocytes [3]; absence of a substrate): 27% | Effect (% Change) on glucose levels (primary rat hepatocytes [3]; [16]): −38% | Effect (% Change) on glucose levels (primary rat hepatocytes [3]; [17]): −25% | glucose levels: decreased by (insulin) / increased by further (glucagon) (primary rat hepatocytes [3]): 38% | glucose levels: decreased by (insulin) / increased by (glucagon) (primary rat hepatocytes [3]; [18]): 25%

CN(C)CCCN1c2ccccc2Sc2ccc(Cl)cc21 [chlorpromazine]
toxicity ([8]; 1 μM): 30.3% | toxicity ([8]; 10 μM): 46.4% | miRNA 122 levels in the supernatants compared to vehicle controls (primary rat hepatocytes [9]): did not cause any change | upregulation of APEX nuclease gene [10]: 2.8 fold | upregulation of glutathione reductase (GSR) gene [10]: 8.3 fold | upregulation of sorbitol dehydrogenase (SORD) gene [10]: 6.9 fold | upregulation of thioredoxin reductase 1 (TXNRD1) gene [10]: 5.5 fold

tumor necrosis factor-α [TNFα]
inflammatory response (expression of E-Selectin, ICAM, VCAM, IL8) (endothelial cells [11]): induced an inflammatory response | Tissue Factor Pathway Inhibitor (TFPI) expression [12]: reduces | lower levels of TNFα to induce fibrin deposition as compared to static cultures [13]: 100- to 200 fold

Cc1ccc2cc3c(ccc4ccccc43)c3c2c1CC3 [3-MC, 3-Methyl Cholanthrene]
induction responses seen at lower levels under controlled hemodynamics (cytochrome p450 1A/1B; controlled hemodynamics (0.1 μM) vs static (1 μM)): 10 fold | 1A/1B response (cytochrome p450 activity normalized to ATP content) (cytochrome p450 1A/1B; controlled hemodynamics, 3-MC 0.1 μM, 48 hours, DMSO 4.87): 133.06

Angiotensin II (DRVYIHPF; Angiotensin-2; UniProt P01019 25-32, looked up) [ANG2]
inflammatory genes (gene array) ([5]; ANG2 10 nM (10.46 ng/ml) vs DMSO vehicle): upregulated
